Columns and labels:
HCT-15 = assay: Antiproliferative activity against human HCT15 cells measured after 72 hrs by EZ-Cytox assay; type: functional, cell-based; settings: HCT-15, 72 h
T47D = assay: Antiproliferative activity against human T47D cells measured after 72 hrs by EZ-Cytox assay; type: functional, cell-based
DU-145 = assay: Antiproliferative activity against human DU145 cells measured after 72 hrs by EZ-Cytox assay; type: functional, cell-based; settings: DU-145, 72 h
HeLa = assay: Antiproliferative activity against human HeLa cells measured after 72 hrs by EZ-Cytox assay; type: functional, cell-based
[1] = biological target: T1, DNA topoisomerase 1 (Homo sapiens) (UniProt P11387); assay: Inhibition of recombinant human topoisomerase 1-mediated relaxation of supercoiled pBR322 DNA at 100 uM measured after 30 mins by ethidium bromide staining based agarose gel electrophoresis relative to control
T1 sequence (whole entry): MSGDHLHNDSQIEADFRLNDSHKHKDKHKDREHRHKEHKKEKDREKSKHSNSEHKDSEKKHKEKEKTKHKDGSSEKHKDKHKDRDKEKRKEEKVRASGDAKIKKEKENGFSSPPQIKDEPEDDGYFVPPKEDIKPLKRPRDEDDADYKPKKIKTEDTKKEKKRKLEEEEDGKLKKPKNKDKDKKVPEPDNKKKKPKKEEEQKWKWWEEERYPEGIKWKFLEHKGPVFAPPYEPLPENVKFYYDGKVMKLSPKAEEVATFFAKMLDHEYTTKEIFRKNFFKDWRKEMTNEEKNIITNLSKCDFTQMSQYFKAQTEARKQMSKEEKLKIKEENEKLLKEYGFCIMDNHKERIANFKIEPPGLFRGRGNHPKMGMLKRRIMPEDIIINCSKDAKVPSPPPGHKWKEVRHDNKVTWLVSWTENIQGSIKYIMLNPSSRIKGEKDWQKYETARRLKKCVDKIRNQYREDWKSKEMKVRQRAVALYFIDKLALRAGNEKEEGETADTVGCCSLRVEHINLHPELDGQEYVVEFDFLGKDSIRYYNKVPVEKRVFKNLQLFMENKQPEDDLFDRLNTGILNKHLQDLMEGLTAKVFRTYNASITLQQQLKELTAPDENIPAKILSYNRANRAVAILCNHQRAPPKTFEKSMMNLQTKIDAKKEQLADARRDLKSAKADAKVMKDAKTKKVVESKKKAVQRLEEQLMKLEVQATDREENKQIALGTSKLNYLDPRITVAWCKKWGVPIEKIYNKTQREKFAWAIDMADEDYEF

[2] = biological target: DNA topoisomerase 2-alpha (Homo sapiens) (UniProt P11388); assay: Inhibition of recombinant human topoisomerase 2alpha-mediated relaxation of supercoiled pBR322 DNA at 100 uM measured after 30 mins by ethidium bromide staining based agarose gel electrophoresis relative to control
DNA topoisomerase 2-alpha (Homo sapiens), sequence (P11388 whole entry): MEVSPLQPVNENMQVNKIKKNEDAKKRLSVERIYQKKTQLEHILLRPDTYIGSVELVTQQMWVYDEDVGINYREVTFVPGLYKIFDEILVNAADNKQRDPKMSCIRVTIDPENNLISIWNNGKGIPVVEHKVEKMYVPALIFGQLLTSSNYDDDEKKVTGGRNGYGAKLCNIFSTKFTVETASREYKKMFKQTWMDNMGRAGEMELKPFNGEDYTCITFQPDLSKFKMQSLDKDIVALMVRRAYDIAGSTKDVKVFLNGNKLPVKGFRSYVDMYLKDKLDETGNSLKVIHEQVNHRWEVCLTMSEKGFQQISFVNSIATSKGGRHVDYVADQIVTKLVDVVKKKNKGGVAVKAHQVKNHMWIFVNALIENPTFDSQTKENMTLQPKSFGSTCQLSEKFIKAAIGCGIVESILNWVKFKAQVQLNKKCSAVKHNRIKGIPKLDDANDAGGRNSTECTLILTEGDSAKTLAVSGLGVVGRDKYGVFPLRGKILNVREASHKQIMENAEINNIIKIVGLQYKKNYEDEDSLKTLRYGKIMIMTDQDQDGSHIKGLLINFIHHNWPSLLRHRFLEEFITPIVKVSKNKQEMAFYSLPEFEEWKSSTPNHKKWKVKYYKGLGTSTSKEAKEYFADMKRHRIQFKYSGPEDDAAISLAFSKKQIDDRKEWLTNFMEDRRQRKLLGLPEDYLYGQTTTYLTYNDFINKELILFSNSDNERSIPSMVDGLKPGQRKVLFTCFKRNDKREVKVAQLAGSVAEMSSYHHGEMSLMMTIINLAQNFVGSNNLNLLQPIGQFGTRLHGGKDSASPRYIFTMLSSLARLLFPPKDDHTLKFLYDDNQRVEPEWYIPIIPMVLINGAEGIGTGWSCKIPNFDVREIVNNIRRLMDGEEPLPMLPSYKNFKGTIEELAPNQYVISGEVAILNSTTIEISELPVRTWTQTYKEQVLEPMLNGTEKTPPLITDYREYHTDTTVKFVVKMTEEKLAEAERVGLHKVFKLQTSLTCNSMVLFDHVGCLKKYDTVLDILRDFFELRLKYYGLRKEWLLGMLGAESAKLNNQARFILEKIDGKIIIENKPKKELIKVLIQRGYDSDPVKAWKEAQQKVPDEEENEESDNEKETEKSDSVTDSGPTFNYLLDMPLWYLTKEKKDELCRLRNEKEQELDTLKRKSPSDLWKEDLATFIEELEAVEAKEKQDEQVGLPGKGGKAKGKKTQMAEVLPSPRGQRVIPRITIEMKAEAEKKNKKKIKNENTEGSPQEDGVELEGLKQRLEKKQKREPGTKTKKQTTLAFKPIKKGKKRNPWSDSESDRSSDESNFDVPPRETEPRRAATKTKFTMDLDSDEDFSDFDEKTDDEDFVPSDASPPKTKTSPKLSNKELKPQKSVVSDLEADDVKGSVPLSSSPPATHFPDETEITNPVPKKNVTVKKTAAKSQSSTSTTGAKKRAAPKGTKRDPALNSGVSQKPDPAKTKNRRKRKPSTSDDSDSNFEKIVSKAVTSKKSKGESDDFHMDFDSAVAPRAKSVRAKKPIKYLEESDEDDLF

| inhibition [1] | inhibition [2] | SMILES | IC50 (HCT-15) | IC50 (T47D) | IC50 (DU-145) | IC50 (HeLa) |
| --- | --- | --- | --- | --- | --- | --- |
| 3.3% | 6.4% | Oc1ccc(-c2cc(-c3ccccc3F)nc3c2Cc2ccc(O)cc2-3)cc1 | > 50 µM | 29.2 µM | 14.1 µM | > 50 µM |
| 8.6% | 0.7% | Oc1ccc(-c2cc(-c3cccc(F)c3)nc3c2Cc2c(O)cccc2-3)cc1 | 4.75 µM | 0.57 µM | 2.04 µM | 7.3 µM |
| 0% | 0.6% | Oc1ccccc1-c1cc(-c2ccccc2F)nc2c1Cc1cccc(O)c1-2 | 3.76 µM | 4.56 µM | 9.9 µM | 7.63 µM |
| 1.6% | 6.3% | Oc1cccc(-c2cc(-c3ccccc3)nc3c2Cc2cccc(O)c2-3)c1 | 1.48 µM | 2.01 µM | 0.72 µM | 2.03 µM |
| 5.3% | 4.4% | Oc1ccc(-c2cc(-c3ccccc3)c3c(n2)-c2cccc(O)c2C3)cc1 | 1.02 µM | 6.23 µM | 0.37 µM | 5.74 µM |
| 11.1% | 2.5% | Oc1ccc(-c2cc(-c3ccccc3)nc3c2Cc2cc(O)ccc2-3)cc1 | > 50 µM | 3.55 µM | 2.48 µM | 2.75 µM |
| 0% | 0% | Oc1cccc(-c2cc(-c3ccccc3)c3c(n2)-c2c(O)cccc2C3)c1 | > 50 µM | 3.68 µM | 0.43 µM | > 50 µM |
| 2.3% | 12.9% | Oc1ccc(-c2cc(-c3cccc(C(F)(F)F)c3)nc3c2Cc2cccc(O)c2-3)cc1 | 4.77 µM | 9.57 µM | 44.1 µM | 16.8 µM |
| 0% | 28.3% | Oc1ccc2c(c1)-c1nc(-c3cccc(F)c3)cc(-c3ccccc3O)c1C2 | 2.9 µM | 0.68 µM | 0.86 µM | 4.22 µM |
| 0% | 24.1% | Oc1ccccc1-c1cc(-c2ccccc2F)nc2c1Cc1c(O)cccc1-2 | 3.39 µM | 1.77 µM | 2.71 µM | 4.18 µM |
| 2% | 19% | Oc1ccc2c(c1)Cc1c(-c3ccccc3)cc(-c3ccccc3O)nc1-2 | > 50 µM | > 50 µM | 1.62 µM | > 50 µM |
| 0.4% | 4.5% | Oc1cccc(-c2cc(-c3ccccc3)c3c(n2)-c2cccc(O)c2C3)c1 | 1.58 µM | 3.92 µM | 0.52 µM | 6.2 µM |
| 8.7% | 4.5% | Oc1ccc(-c2cc(-c3cccc(F)c3)nc3c2Cc2cc(O)ccc2-3)cc1 | 3.57 µM | 1.34 µM | 1.44 µM | 6.76 µM |
| 1.1% | 3.7% | Oc1ccc(-c2cc(-c3ccccc3)c3c(n2)-c2c(O)cccc2C3)cc1 | > 50 µM | 11.6 µM | 0.66 µM | 2.06 µM |
| 0% | 24.4% | Oc1ccc(-c2cc(-c3cccc(Cl)c3)nc3c2Cc2cccc(O)c2-3)cc1 | 1.3 µM | 0.83 µM | 0.03 µM | 6.23 µM |
| 0.2% | 26.2% | Oc1ccc(-c2cc(-c3ccc(Cl)cc3)nc3c2Cc2cccc(O)c2-3)cc1 | > 50 µM | > 50 µM | 2.8 µM | > 50 µM |
| 3% | 2.9% | Oc1ccc(-c2cc(-c3ccccc3C(F)(F)F)nc3c2Cc2cccc(O)c2-3)cc1 | > 50 µM | 1.44 µM | > 50 µM | > 50 µM |
| 4% | 8.7% | Oc1cccc(-c2cc(-c3ccccc3F)nc3c2Cc2cccc(O)c2-3)c1 | 8.33 µM | 0.83 µM | 1.88 µM | 12.1 µM |

From ChEMBL document CHEMBL4373715, “Discovery and Biological Evaluations of Halogenated 2,4-Diphenyl Indeno[1,2-b]pyridinol Derivatives as Potent Topoisomerase IIα-Targeted Chemotherapeutic Agents for Breast Cancer” (J Med Chem, 2019)
